The source made the active and inactive calls. No cut-off for these calls is given here.
Columns and labels:
[1] = biological target: Carbonic anhydrase 9 (Homo sapiens, UniProt Q16790)
Description: Inhibition of recombinant human tumor-associated carbonic anhydrase 9 assessed as inhibition of CO2 hydration preincubated for 15 mins prior to testing by phenol red based stopped-flow CO2 hydration assay

[2] = biological target: T1, Carbonic anhydrase 4 (Homo sapiens, UniProt P22748); test: Inhibition of recombinant human membrane-associated carbonic anhydrase 4 assessed as inhibition of CO2 hydration up to 100 uM preincubated for 15 mins prior to testing by phenol red based stopped-flow CO2 hydration assay
[3] = biological target: T2, Carbonic anhydrase 1 (Homo sapiens, UniProt P00915); test: Inhibition of recombinant human cytosolic carbonic anhydrase 1 assessed as inhibition of CO2 hydration up to 100 uM preincubated for 15 mins prior to testing by phenol red based stopped-flow CO2 hydration assay
Target sequence in this assay (P00915 2-261 limits assumed): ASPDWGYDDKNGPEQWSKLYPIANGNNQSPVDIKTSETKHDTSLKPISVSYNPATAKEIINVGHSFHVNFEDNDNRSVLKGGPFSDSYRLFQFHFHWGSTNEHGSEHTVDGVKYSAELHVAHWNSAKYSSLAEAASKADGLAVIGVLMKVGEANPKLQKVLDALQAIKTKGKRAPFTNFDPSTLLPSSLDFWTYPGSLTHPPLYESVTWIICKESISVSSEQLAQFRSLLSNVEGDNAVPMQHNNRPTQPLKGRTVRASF

[4] = biological target: T1, Carbonic anhydrase 4; test: Inhibition of recombinant human membrane-associated carbonic anhydrase 4 assessed as inhibition of CO2 hydration preincubated for 15 mins prior to testing by phenol red based stopped-flow CO2 hydration assay
[5] = biological target: Carbonic anhydrase 2 (Homo sapiens, UniProt P00918); test: Inhibition of recombinant human carbonic anhydrase 2 assessed as inhibition of CO2 hydration preincubated for 15 mins prior to testing by phenol red based stopped-flow CO2 hydration assay
[6] = biological target: T2, Carbonic anhydrase 1; test: Inhibition of recombinant human cytosolic carbonic anhydrase 1 assessed as inhibition of CO2 hydration preincubated for 15 mins prior to testing by phenol red based stopped-flow CO2 hydration assay
Target sequence in this assay (P00915 whole entry): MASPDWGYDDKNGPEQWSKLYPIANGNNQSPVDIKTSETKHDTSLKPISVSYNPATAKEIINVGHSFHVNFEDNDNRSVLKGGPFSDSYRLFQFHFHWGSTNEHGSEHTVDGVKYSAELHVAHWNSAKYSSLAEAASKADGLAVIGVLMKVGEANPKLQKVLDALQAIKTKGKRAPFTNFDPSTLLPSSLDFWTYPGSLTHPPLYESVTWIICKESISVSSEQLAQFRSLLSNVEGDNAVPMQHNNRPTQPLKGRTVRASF

T1 sequence (P22748 whole entry): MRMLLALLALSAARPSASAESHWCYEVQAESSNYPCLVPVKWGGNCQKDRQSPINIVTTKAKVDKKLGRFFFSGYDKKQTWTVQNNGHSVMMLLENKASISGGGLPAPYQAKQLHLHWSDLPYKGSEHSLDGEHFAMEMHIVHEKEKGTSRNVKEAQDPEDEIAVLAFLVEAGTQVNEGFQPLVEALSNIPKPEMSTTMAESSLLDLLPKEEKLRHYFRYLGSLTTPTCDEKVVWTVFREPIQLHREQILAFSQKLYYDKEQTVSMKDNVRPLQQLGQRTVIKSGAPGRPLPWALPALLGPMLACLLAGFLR

Row | Structure (SMILES) | Ki [1] [µM] | also measured
1 | CC(=O)c1nn(-c2ccc(S(N)(=O)=O)cc2)c2nc3nc(-c4ccc(Cl)cc4)cc(-c4ccc([N+](=O)[O-])cc4)c3c(=O)n12 | 0.33 | 
2 | CCOC(=O)c1nn(-c2ccc(S(N)(=O)=O)cc2)c2nc3nc(-c4cccs4)cc(-c4ccccc4)c3c(=O)n12 | 1.9 | inhibition [2]: inactive
3 | CC(=O)c1nn(-c2ccc(S(N)(=O)=O)cc2)c2nc3nc(-c4ccc(Cl)cc4)cc(-c4ccc(F)cc4)c3c(=O)n12 | 0.25 | 
4 | CC(=O)c1nn(-c2ccc(S(N)(=O)=O)cc2)c2nc3nc(-c4cccs4)cc(-c4ccc(Cl)cc4)c3c(=O)n12 | 0.99 | inhibition [3]: inactive
5 | CCOC(=O)c1nn(-c2ccc(S(N)(=O)=O)cc2)c2nc3nc(-c4cccs4)cc(-c4ccc(F)cc4)c3c(=O)n12 | 1.62 | inhibition [3]: inactive
6 | COc1ccc(-c2cc(-c3cccs3)nc3nc4n(-c5ccc(S(N)(=O)=O)cc5)nc(C(C)=O)n4c(=O)c23)cc1 | 0.42 | 
7 | CCOC(=O)c1nn(-c2ccc(S(N)(=O)=O)cc2)c2nc3nc(-c4cccs4)cc(-c4ccc(Cl)cc4)c3c(=O)n12 | 0.39 | 
8 | CCOC(=O)c1nn(-c2ccc(S(N)(=O)=O)cc2)c2nc3nc(-c4ccc(Cl)cc4)cc(-c4ccc(F)cc4)c3c(=O)n12 | 3.24 | 
9 | CC(=O)c1nn(-c2ccc(S(N)(=O)=O)cc2)c2nc3nc(-c4ccc(Cl)cc4)cc(-c4ccc(Cl)cc4)c3c(=O)n12 | 0.35 | 
10 | CCOC(=O)c1nn(-c2ccc(S(N)(=O)=O)cc2)c2nc3nc(-c4cccs4)cc(-c4ccc([N+](=O)[O-])cc4)c3c(=O)n12 | 1.1 | 
11 | CC(=O)c1nn(-c2ccc(S(N)(=O)=O)cc2)c2nc3nc(-c4cccs4)cc(-c4ccc(F)cc4)c3c(=O)n12 | 0.19 | 
12 | CCOC(=O)c1nn(-c2ccc(S(N)(=O)=O)cc2)c2nc3nc(-c4ccc(Cl)cc4)cc(-c4ccc(OC)cc4)c3c(=O)n12 | 1.45 | inhibition [2]: inactive
13 | CCOC(=O)c1nn(-c2ccc(S(N)(=O)=O)cc2)c2nc3nc(-c4cccs4)cc(-c4ccc(OC)cc4)c3c(=O)n12 | 0.38 | 
14 | CC(=O)c1nn(-c2ccc(S(N)(=O)=O)cc2)c2nc3nc(-c4cccs4)cc(-c4ccccc4)c3c(=O)n12 | 1.12 | Ki [5]: 0.73 µM; Ki [6]: 6.78 µM; Ki [4]: 4.79 µM

The remaining compounds from weak to strong by Ki [1], led by results:

Row | Ki [1] [µM] | Structure (SMILES) | also measured
15 | 3.26 | CCOC(=O)c1nn(-c2ccc(S(N)(=O)=O)cc2)c2nc3nc(-c4ccc(Cl)cc4)cc(-c4ccccc4)c3c(=O)n12 | inhibition [3]: inactive
16 | 2.46 | CCOC(=O)c1nn(-c2ccc(S(N)(=O)=O)cc2)c2nc3nc(-c4ccc(Cl)cc4)cc(-c4ccc([N+](=O)[O-])cc4)c3c(=O)n12 | 
17 | 1.46 | CCOC(=O)c1nn(-c2ccc(S(N)(=O)=O)cc2)c2nc3nc(-c4ccc(Cl)cc4)cc(-c4ccc(Cl)cc4)c3c(=O)n12 | 
18 | 0.33 | COc1ccc(-c2cc(-c3ccc(Cl)cc3)nc3nc4n(-c5ccc(S(N)(=O)=O)cc5)nc(C(C)=O)n4c(=O)c23)cc1 | 
19 | 0.18 | CC(=O)c1nn(-c2ccc(S(N)(=O)=O)cc2)c2nc3nc(-c4ccc(Cl)cc4)cc(-c4ccccc4)c3c(=O)n12 | 
20 | 0.16 | CC(=O)c1nn(-c2ccc(S(N)(=O)=O)cc2)c2nc3nc(-c4cccs4)cc(-c4ccc([N+](=O)[O-])cc4)c3c(=O)n12 | 
21 | 0.02 | Cc1ccc(-c2cc(C(F)(F)F)nn2-c2ccc(S(N)(=O)=O)cc2)cc1 [CELECOXIB] | Ki [4]: 0.29 µM

From ChEMBL document CHEMBL4004875, “Synthesis of bulky-tailed sulfonamides incorporating pyrido[2,3-d][1,2,4]triazolo[4,3-a]pyrimidin-1(5H)-yl) moieties and evaluation of their carbonic anhydrases I, II, IV and IX inhibitory effects” (Bioorg Med Chem, 2017)
